Assay results: US7279494B2, “Antimicrobial [3.1.0] bicyclohexylphenyl-oxazolidinone derivatives and analogues” (Pfizer Inc., priority 2003, dated 2007)
≈ marks a conversion by molar mass, not a printed value.

Key:
S. aureus UC9213 = assay: MIC by standard agar dilution, S. aureus UC9213; assay type: cell-based; details: incubated overnight at 35° C.; for MIC: Staphylococcus aureus, UC9213, Mueller Hinton agar
How it was run: (§1)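 Agar dilution MIC: 2-fold serial compound dilutions in Mueller Hinton agar, spot-inoculated with ~10^4–10^5 cells from 0.5 McFarland suspensions diluted 1:20 in TSB. Incubated overnight at 35 °C; MIC (μg/mL) taken as lowest concentration preventing visible growth.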

H. influenzae 30063 = assay: MIC by standard agar dilution, H. influenzae 30063; assay type: cell-based; details: Mueller Hinton agar, incubated overnight at 35° C.; for MIC: Haemophilus influenzae, 30063, agar dilution, read-out: H. influenzae 30063 MIC
How it was run: as §1

S. pneumoniae UC9912 = assay: MIC by standard agar dilution, S. pneumoniae UC9912; assay type: cell-based; details: incubated overnight at 35° C.; for MIC: Streptococcus pneumoniae, UC9912, Mueller Hinton agar
How it was run: as §1

Row | Molecule | MIC (S. aureus UC9213) | MIC (H. influenzae 30063) | MIC (S. pneumoniae UC9912) | melting point | S. aureus UC9213 MIC (S. aureus UC9213; Mueller Hinton agar) | H. influenzae 30063 MIC (H. influenzae 30063; agar dilution) | S. pneumoniae UC9912 MIC (S. pneumoniae UC9912; Mueller Hinton agar)
1 | CC(=O)NC[C@H]1CN(c2ccc([C@H]3[C@@H]4CSC[C@@H]43)c(F)c2)C(=O)O1 [Example 1, N-[((5S)-3-{3-fluoro-4-[exo-(1R,5S)-3-thiabicyclo[3.1.0]hex-6-yl]phenyl}-2-oxo-1,3-oxazolidin-5-yl)methyl]acetamide] | 4 µg/mL (≈ 11.4 µM) | ≤ 32 µg/mL | 1 µg/mL (≈ 2.85 µM) | 177 to 178 °C |  |  | 
2 | N#CCC(=O)NC[C@H]1CN(c2ccc([C@H]3[C@@H]4C[S+]([O-])C[C@@H]43)c(F)c2)C(=O)O1 (stereo partly drawn) [Example 68, 2-cyano-N-[((5S)-3-{3-fluoro-4-[exo-(1R,5S)-3-oxido-3-thiabicyclo[3.1.0]hex-6-yl]phenyl}-2-oxo-1,3-oxazolidin-5-yl)methyl]acetamide] | 4 µg/mL (≈ 10.2 µM) | 8 µg/mL (≈ 20.4 µM) | 1 µg/mL (≈ 2.55 µM) |  |  |  | 
3 | N#CCC(=O)NC[C@H]1CN(c2ccc([C@H]3[C@@H]4CS(=O)(=O)C[C@@H]43)c(F)c2)C(=O)O1 [Example 69, 2-cyano-N-[((5S)-3-{3-fluoro-4-[exo-(1R,5S)-3,3-dioxido-3-thiabicyclo[3.1.0]hex-6-yl]phenyl}-2-oxo-1,3-oxazolidin-5-yl)methyl]acetamide] | 4 µg/mL (≈ 9.82 µM) | 8 µg/mL (≈ 19.6 µM) | 4 µg/mL (≈ 9.82 µM) |  |  |  | 
4 | N#CCC(=O)NC[C@H]1CN(c2cc(F)c([C@H]3[C@@H]4C[S+]([O-])C[C@@H]43)c(F)c2)C(=O)O1 (stereo partly drawn) [Example 70, 2-cyano-N-[((5S)-3-{3,5-difluoro-4-[exo-(1R,5S)-3-oxido-3-thiabicyclo[3.1.0]hex-6-yl]phenyl}-2-oxo-1,3-oxazolidin-5-yl)methyl]acetamide] | 2 µg/mL (≈ 4.89 µM) | 4 µg/mL (≈ 9.77 µM) | 1 µg/mL (≈ 2.44 µM) |  |  |  | 
5 | N#CCC(=O)NC[C@H]1CN(c2cc(F)c([C@H]3[C@@H]4CS(=O)(=O)C[C@@H]43)c(F)c2)C(=O)O1 [Example 71, 2-cyano-N-[((5S)-3-{3,5-difluoro-4-[exo-(1R,5S)-3,3-dioxide-3-thiabicyclo[3.1.0]hex-6-yl]phenyl}-2-oxo-1,3-oxazolidin-5-yl)methyl]acetamide] | 4 µg/mL (≈ 9.4 µM) | 4 µg/mL (≈ 9.4 µM) | 2 µg/mL (≈ 4.7 µM) |  |  |  | 
6 | CC(=O)NC[C@H]1CN(c2ccc([C@H]3[C@@H]4CN(C(=N)N)C[C@@H]43)c(F)c2)C(=O)O1 [Example 72, N-{[(5S)-3-(4-{exo-(1R,5S)-3-[amino(imino)methyl]-3-azabicyclo[3.1.0]hex-6-yl}-3-fluorophenyl)-2-oxo-1,3-oxazolidin-5-yl]methyl}acetamide] | 32 µg/mL (≈ 85.2 µM) | 64 µg/mL (≈ 170 µM) | 8 µg/mL (≈ 21.3 µM) |  |  |  | 
7 | CN/C(=N\C#N)N1C[C@@H]2[C@H](C1)[C@H]2c1ccc(N2C[C@H](CNC(C)=O)OC2=O)cc1F [Example 73, exo-(1R,5S)-N′-cyano-6-(4-{(5S)-5-[(acetylamino)methyl]-2-oxo-1,3-oxazolidin-3-yl}-2-fluorophenyl)-N-methyl-3-azabicyclo[3.1.0]hexane-3-carboximidamide] | 2 µg/mL (≈ 4.83 µM) | 4 µg/mL (≈ 9.65 µM) | 1 µg/mL (≈ 2.41 µM) |  |  |  | 
8 | CC(=O)NC[C@H]1CN(c2ccc([C@H]3[C@@H]4CN(/C(N)=N/C#N)C[C@@H]43)c(F)c2)C(=O)O1 [Example 74, exo-(1R,5S)-N′-cyano-6-(4-{(5S)-5-[(acetylamino)methyl]-2-oxo-1,3-oxazolidin-3-yl}-2-fluorophenyl)-3-azabicyclo[3.1.0]hexane-3-carboximidamide] | 1 µg/mL (≈ 2.5 µM) | 4 µg/mL (≈ 9.99 µM) | 1 µg/mL (≈ 2.5 µM) |  |  |  | 
9 | CN/C(=C\[N+](=O)[O-])N1C[C@@H]2[C@H](C1)[C@H]2c1ccc(N2C[C@H](CNC(C)=O)OC2=O)cc1F [Example 75, N-[((5S)-3-{3-fluoro-4-[exo-(1R,5S)-3-((E)-1-{methylamino}-2-nitrovinyl)-3-azabicyclo[3.1.0]hex-6-yl]phenyl}-2-oxo-1,3-oxazolidin-5-yl)methyl]acetamide] | 2 µg/mL (≈ 4.61 µM) | 4 µg/mL (≈ 9.23 µM) | 2 µg/mL (≈ 4.61 µM) |  |  |  | 
10 | CC(=O)NC[C@H]1CN(c2ccc(N3CCOCC3)c(F)c2)C(=O)O1 [linezolid, reference compound] | 4 µg/mL (≈ 11.9 µM) | 16 µg/mL (≈ 47.4 µM) | 1 µg/mL (≈ 2.96 µM) |  |  |  | 
11 | N-[((5S)-3-{3-fluoro-4-[exo-(1R,5S)-3-(1-methyl-1H-tetrazol-5-yl)-3-azabicyclo[3.1.0]hex-6-yl]phenyl}-2-oxo-1,3-oxazolidin-5-yl)methyl]acetamide [Example 45] |  |  |  |  | 4 µg/mL | 16 µg/mL | 4 µg/mL
